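48-hour exposure; five concentrations; linearly interpolated endpoints. TGI denotes the concentration required for complete inhibition of growth.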

What all share (experiment): inhibition of tumour cell growth, NCI panel, 48 h
Experiment [1] concerns BT-549 breast.
Experiment [2] has as its system HOP-62 NSCLC.
The test system of experiment [3] is HOP-92 NSCLC.
Experiment [4] has as its system MOLT-4 leukemia.
For experiment [5], the system named is NCI-H23 lung.
Experiment [6] relates to SF-268 CNS.
The test system of experiment [7] is SF-295 CNS.
Experiment [8] has as its system SK-MEL-5 melanoma.
Experiment [9] deals with SR leukemia.
Experiment [10] deals with T-47D breast.

Regarding `COc1ccc2nc3cc([N+](=O)[O-])ccc3c(NNc3ccc([N+](=O)[O-])cc3)c2c1`, the TGI is over 100 µM in [1]; over 100 µM in [2]; 67.7 µM in experiment [3]; over 100 µM in [4]; over 100 µM in [5]; over 100 µM in [6]. Moreover, the TGI in [7] is over 100 µM; in experiment [8] it was 61.4 µM; in [9] it was over 69 µM; in experiment [10], over 100 µM.

For `Cc1ccc(NC(=O)CC(=O)N2N=C(N3CCCCC3)CC2c2ccccc2)cc1` (stereo not given), the TGI in experiment [1], in experiment [2], in [3], in experiment [4], in experiment [5] and in [6] was over 100 µM throughout. In addition, the TGI in experiment [7], in experiment [8], in experiment [9] and in experiment [10] was over 100 µM in each case.

`C=C1C2C[C@@H]3O[C@H]4C[C@H]5O[C@@]6(C[C@@H]7O[C@]8(C[C@H](C)[C@@H]9O[C@@H]%10CC(C=O)O[C@@H]%10C[C@@H]9O8)C[C@H](C)[C@@H]7O6)C[C@H]5O[C@H]4[C@H](C)[C@H]3OC(=O)C[C@H]3CC[C@@H]4OC5[C@H]6O[C@]7(CC[C@H]8CC(=C)[C@H](CC[C@@H](C[C@H]1C)O2)O8)CC6O[C@@H]5[C@@H](O7)[C@H]4O3` (stereo not given in full): the TGI in [1] was under 0.0001 µM; in [2], over 1 µM; in experiment [3], over 0.42 µM; in experiment [4], over 1 µM; in experiment [5], 0.00195 µM; in experiment [7], over 1 µM. Further, the TGI in experiment [8], in experiment [9] and in experiment [10] was over 1 µM throughout.

`Cc1ccc(C(=O)O)c(/C=C2\Cc3cc(C)cc(C)c3C2=O)c1`: the TGI in [1], in [2], in experiment [4], in [6], in [7] and in experiment [8] was over 100 µM in each case. The TGI in experiment [9] and in [10] was over 100 µM each time.

For `C=C[C@]1(C)CC(=O)C(C(C)C=O)[C@]12C(=O)Oc1cccc(C)c1C2=O` (stereo not given in full), the TGI in experiment [1] is 28.4 µM; in experiment [2], 35.9 µM; in experiment [4] it was over 100 µM; in experiment [5], 33.2 µM; in experiment [6] it was 43.3 µM; in experiment [7] it was 28.9 µM. In addition, the values for the TGI in experiment [8], in experiment [9] and in experiment [10] were 25.9 µM, over 100 µM and 34.1 µM, respectively.

Turning to `CN1CN(c2ccccc2)C2(CCN(C3Nc4ccccc4O3)CC2)C1=O` (stereo not given), the TGI in experiment [1] worked out at 37.3 µM; in [2] it was 31.1 µM; in experiment [4], 92.2 µM; in experiment [5], 54.9 µM; in [6], 61 µM; in experiment [7], 33.6 µM. The figures for the TGI in experiment [8], in experiment [9] and in [10] were 32 µM, over 100 µM and 58.8 µM, respectively.

For `COc1ccc(N=C(CS(=O)c2ccc(C)cc2)C(F)(F)F)cc1` (stereo not given), the TGI in [1], in experiment [3], in [4], in experiment [5], in experiment [7] and in experiment [8] was over 100 µM each time. Further, the TGI in [9] and in experiment [10] was over 100 µM each time.

As to `CC(=O)Nc1ncc2c(n1)-c1ccccc1OC2c1ccccc1` (stereo not given), the TGI in experiment [1] was over 100 µM; in experiment [3], 41.4 µM; in [4], over 100 µM; in experiment [5] it was over 100 µM; in experiment [6], 63.5 µM; in experiment [7], over 100 µM. Also, the TGI was over 100 µM in [8], over 100 µM in experiment [9] and 68.4 µM in [10].

For `COC(=O)CN=C1NC(=S)N(Cc2ccc(OC)cc2)C12CCCC2`, the TGI in [1], in experiment [2], in experiment [3], in experiment [4], in experiment [5] and in experiment [6] was over 100 µM each time. Also, the TGI in experiment [7], in experiment [9] and in experiment [10] was over 100 µM throughout.

On to `CCOC(=O)c1cc(-c2ccc([N+](=O)[O-])cc2)c([N+](=O)[O-])[nH]1`, for which the TGI in experiment [1] was over 10 µM; in experiment [3], 5.49 µM; in [4] it was over 10 µM; in experiment [5], 8.01 µM; in experiment [6] it was over 10 µM; in experiment [7], 7.47 µM. The figures for the TGI in experiment [9] and in [10] were over 10 µM and 9.95 µM, respectively.

Take `Fc1cc(C2=Nn3c(CNc4ccc(Cl)cc4)nnc3S/C2=C\c2ccc(-c3ccc(Cl)cc3)o2)c(Cl)cc1Cl`: the TGI in experiment [1] was over 100 µM; in experiment [2] it was 91.6 µM; in [4], over 100 µM; in experiment [5] it was over 100 µM; in [6] it was over 100 µM; in experiment [7], 52.4 µM. Besides, the TGI in experiment [8], in experiment [9] and in experiment [10] was over 100 µM in each case.

Turning to `COc1ccc(-c2[nH]c(-c3ccc(OC)cc3)c(-c3ccccn3)c2-c2ccccn2)cc1`, the TGI in [1] is 99.9 µM; in experiment [3] it was over 100 µM; in [4], over 100 µM; in experiment [5] it was over 100 µM; in experiment [6] it was over 100 µM; in experiment [7] it was over 100 µM. The TGI in [8] is 32.2 µM; in experiment [9] it was over 100 µM; in experiment [10], over 100 µM.

For the compound `CCCCC(O)(c1ccccc1)C(O)(c1ccccc1)c1c(F)c(F)c(F)c(F)c1F` (stereo not given), the TGI was over 100 µM in experiment [1]; 49.5 µM in experiment [2]; 44.8 µM in [3]; 45.6 µM in [4]; over 100 µM in [5]; 53.1 µM in experiment [6]. Further, the results for the TGI in experiment [8], in experiment [9] and in [10] were 35.5 µM, 76.7 µM and over 100 µM, respectively.

As for `O=[N+]([O-])c1ccc(Cc2nc3cc4ccccc4cc3[nH]2)cc1C(F)(F)F`, the TGI came out at 43 µM in experiment [1]; 27.3 µM in experiment [2]; 41.1 µM in experiment [3]; 87.7 µM in experiment [4]; 25.7 µM in experiment [5]; 39 µM in experiment [6]. The TGI in [7] is 29 µM; in experiment [8], 25.1 µM; in experiment [10], 21.6 µM.

For the origin of these results see PubChem BioAssay (NCI).
